Results: patent US9957265B2, “N-(2-cyano heterocyclyl) pyrazolo pyridones as janus kinase inhibitors” (Merck Sharp & Dohme Corp., priority 2013, dated 2018)
Read-outs that look alike come from different tables or passages of the source.

Legend:
JAK1 = JAK1 (Homo sapiens (Human), UniProt P23458); assay: Jak Biochemical HTRF Assay (JAK1); conditions: recombinant GST-tagged catalytic domain, [ATP] 31.8 μM, unit not given (compound concentrations tested given in nM)
Excerpt: Jak Biochemical HTRF Assay Protocol
Subsequent reagent additions employed an Agilent Bravo.

JAK2 = JAK2 (Homo sapiens (Human), UniProt O60674); assay: Jak Biochemical HTRF Assay (JAK2)
Chain of JAK2 (O60674 849-1124): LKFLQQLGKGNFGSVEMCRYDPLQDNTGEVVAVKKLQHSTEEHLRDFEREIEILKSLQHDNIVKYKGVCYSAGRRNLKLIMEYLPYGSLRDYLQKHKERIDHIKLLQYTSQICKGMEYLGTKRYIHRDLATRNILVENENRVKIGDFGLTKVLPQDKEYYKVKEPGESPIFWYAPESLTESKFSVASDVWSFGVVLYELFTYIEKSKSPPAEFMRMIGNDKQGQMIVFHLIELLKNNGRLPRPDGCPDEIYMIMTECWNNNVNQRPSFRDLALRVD

[1] = JAK2 IC50, recombinant GST-tagged catalytic domain, [ATP] 8.5 μM, unit not given (compound concentrations tested given in nM)
[2] = read-out: JAK2 IC50, recombinant GST-tagged catalytic domain, [ATP] 8.5 μM, unit not given (compound concentrations tested given in nM)

Chain of JAK1 (P23458 875-1153): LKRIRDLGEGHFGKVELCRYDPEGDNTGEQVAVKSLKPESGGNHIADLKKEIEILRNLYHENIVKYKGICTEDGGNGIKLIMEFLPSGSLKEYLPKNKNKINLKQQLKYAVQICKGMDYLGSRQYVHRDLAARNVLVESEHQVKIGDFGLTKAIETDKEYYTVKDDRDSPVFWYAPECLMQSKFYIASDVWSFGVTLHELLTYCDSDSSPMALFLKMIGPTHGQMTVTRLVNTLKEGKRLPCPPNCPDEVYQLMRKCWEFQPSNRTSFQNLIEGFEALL

IC50 (JAK1) [nM]	IC50 (JAK2; [1]) [nM]	IC50 (JAK2; [2]) [nM]	Structure (SMILES)
0.27	0.43		CC1(C)CC1NC(c1ccc(Nc2nn([C@H]3COCC[C@@H]3C#N)c3cc[nH]c(=O)c23)cc1)C(F)(F)F (single isomer, unassigned) [Example 1-47, (3R,4S)-3-{3-[(4S or 4R-{1S or 1R-[(2,2-dimethylcyclopropyl)amino]-2,2,2-trifluoroethyl}phenyl)amino]-4-oxo-4,5-dihydro-1H-pyrazolo[4,3-c]pyridin-1-yl}tetrahydro-2H-pyran-4-carbonitrile]
0.13	0.17		N#C[C@H]1CCOC[C@@H]1n1nc(Nc2ccc(C(N3CCNCC3)C(F)(F)F)cc2)c2c(=O)[nH]ccc21 (single isomer, unassigned) [Example 1-39, (3R,4S)-3-[4-oxo-3-({4-[(1S or 1R)-2,2,2-trifluoro-1-piperazin-1-ylethyl]phenyl}amino)-4,5-dihydro-1H-pyrazolo[4,5-c]pyridin-1-yl]tetrahydro-2H-pyran-4-carbonitrile]
0.04	0.08		N#C[C@H]1CCOC[C@@H]1n1nc(Nc2ccc(C(N3CCCC3)C(F)(F)F)cc2)c2c(=O)[nH]ccc21 (single isomer, unassigned) [Example 1-43, (3R,4S)-3-[4-oxo-3-({4-[(1S or 1R)-2,2,2-trifluoro-1-pyrrolidin-1-ylethyl]phenyl}amino)-4,5-dihydro-1H-pyrazolo[4,3-c]pyridin-1-yl]tetrahydro-2H-pyran-4-carbonitrile]
0.03		0.89	Cc1nc2ccc(Nc3nn([C@@H]4COCC[C@@H]4C#N)c4cc[nH]c(=O)c34)cc2s1 [Example 2-1, (3S,4S)-3-{3-[(2-methyl-1,3-benzothiazol-6-yl)amino]-4-oxo-4,5-dihydro-1H-pyrazolo[4,3-c]pyridin-1-yl}tetrahydro-2H-pyran-4-carbonitrile]
0.21	0.24		N#C[C@H]1CCOC[C@@H]1n1nc(Nc2ccc(C(N3CCSCC3)C(F)(F)F)cc2)c2c(=O)[nH]ccc21 (single isomer, unassigned) [Example 2-6, (3R,4S)-3-[4-oxo-3-({4-[(1R or 1S)-2,2,2-trifluoro-1-thiomorpholin-4-ylethyl]phenyl}amino)-4,5-dihydro-1H-pyrazolo[4,3-c]pyridin-1-yl]tetrahydro-2H-pyran-4-carbonitrile]
0.05	0.06		N#C[C@H]1CCOC[C@@H]1n1nc(Nc2ccc(C3(C(F)(F)F)CCCCN3)cc2)c2c(=O)[nH]ccc21 (single isomer, unassigned) [Example 2-7, (3R,4S)-3-[4-oxo-3-({4-[(2S or 2R)-2-(trifluoromethyl)piperidin-2-yl]phenyl}amino)-4,5-dihydro-1H-pyrazolo[4,3-c]pyridin-1-yl] tetrahydro-2H-pyran-4-carbonitrile]
0.09		2.52	COc1cc(Nc2nn([C@H]3COCC[C@@H]3C#N)c3cc[nH]c(=O)c23)ccc1F [Example 1-17, (3R,4S)-3-{3-[(4-fluoro-3-methoxyphenyl)amino]-4-oxo-4,5-dihydro-1H-pyrazolo[4,3-c]pyridin-1-yl}tetrahydro-2H-pyran-4-carbonitrile]
0.06	0.22		N#C[C@H]1CCOC[C@@H]1n1nc(Nc2ccc(C(N)C(F)(F)F)cc2)c2c(=O)[nH]ccc21 (single isomer, unassigned) [Example 1-8, (3R,4S)-3-(3-((4-((R or S)-1-amino-2,2,2-trifluoroethyl)phenyl)amino)-4-oxo-4,5-dihydro-1H-pyrazolo[4,3-c]pyridin-1-yl)tetrahydro-2H-pyran-4-carbonitrile]
0.06	0.09		N#C[C@H]1CCOCC1n1nc(Nc2ccc(C(O)(c3ccncc3)C(F)(F)F)cc2)c2c(=O)[nH]ccc21 (single isomer, unassigned) [Example 1-95, (3R,4S)-3-(4-oxo-3-((4-((S or R)-2,2,2-trifluoro-1-hydroxy-1-(pyridin-4-yl)ethyl)phenyl)amino)-4,5-dihydro-1H-pyrazolo[4,3-c]pyridin-1-yl)tetrahydro-2H-pyran-4-carbonitrile]
0.14	0.6		CC(C)(C)OC(=O)CNC(c1ccc(Nc2nn([C@H]3COCC[C@@H]3C#N)c3cc[nH]c(=O)c23)cc1)C(F)(F)F (single isomer, unassigned) [Example 1-41, tert-butyl N-{(1S or 1R)-1-[4-({1-[(3R,4S)-4-cyanotetrahydro-2H-pyran-3-yl]-4-oxo-4,5-dihydro-1H-pyrazolo[4,3-c]pyridin-3-yl}amino)phenyl]-2,2,2-trifluoroethyl}glycinate]
0.28		1.83	Cc1ccc(Nc2nn([C@H]3COCC[C@@H]3C#N)c3cc[nH]c(=O)c23)cc1C [Example 1-68, (3R,4S)-3-{3-[(3,4-dimethylphenyl)amino]-4-oxo-4,5-dihydro-1H-pyrazolo[4,3-c]pyridin-1-yl}tetrahydro-2H-pyran-4-carbonitrile]
0.05		0.16	CC1(C)C(=O)Nc2cc(Nc3nn([C@H]4COCC[C@@H]4C#N)c4cc[nH]c(=O)c34)ccc21 [Example 2-2, (3R,4S)-3-{3-[(3,3-dimethyl-2-oxo-2,3-dihydro-1H-indol-6-yl)amino]-4-oxo-4,5-dihydro-1H-pyrazolo [4,3-c]pyridin-1-yl}tetrahydro-2H-pyran-4-carbonitrile]
0.1		0.3	CN(C(C)(C)C)S(=O)(=O)c1ccc(Nc2nn([C@H]3COCC[C@@H]3C#N)c3cc[nH]c(=O)c23)cc1 [Example 1-12, N-(tert-butyl)-4-((1-((3R,4S)-4-cyanotetrahydro-2H-pyran-3-yl)-4-oxo-4,5-dihydro-1H-pyrazolo[4,3-c]pyridin-3-yl)amino)-N-methylbenzenesulfonamide]
0.07	0.15		N#C[C@H]1CCOC[C@@H]1n1nc(Nc2ccc(C(NC3CC3)C(F)(F)F)cc2)c2c(=O)[nH]ccc21 (single isomer, unassigned) [Example 1-80, (3R,4S)-3-[3-({4-[(1S or 1R)-1-(cyclopropylamino)-2,2,2-trifluoroethyl]phenyl}amino)-4-oxo-4,5-dihydro-1H-pyrazolo[4,3-c]pyridin-1-yl]tetrahydro-2H-pyran-4-carbonitrile]
0.15	0.3		CC1CCCN1C(c1ccc(Nc2nn([C@H]3COCC[C@@H]3C#N)c3cc[nH]c(=O)c23)cc1)C(F)(F)F (single isomer, unassigned) [Example 1-87, (3R,4S)-3-{4-oxo-3-[(4-{(1S or 1R)-2,2,2-trifluoro-1-[(2R or 2S)-2-methylpyrrolidin-1-yl]ethyl}phenyl)amino]-4,5-dihydro-1H-pyrazolo[4,3-c]pyridin-1-yl}tetrahydro-2H-pyran-4-carbonitrile]
0.09	0.29		N#C[C@H]1CCOC[C@@H]1n1nc(Nc2ccc(C(N)C(F)(F)F)cc2)c2c(=O)[nH]ccc21 (single isomer, unassigned) [Example 1-9, (3R,4S)-3-(3-((4-((S or R)-1-amino-2,2,2-trifluoroethyl)phenyl)amino)-4-oxo-4,5-dihydro-1H-pyrazolo[4,3-c]pyridin-1-yl)tetrahydro-2H-pyran-4-carbonitrile]
0.08		0.3	N#C[C@H]1CCOC[C@@H]1n1nc(Nc2ccc(S(=O)(=O)N3CCC3)cc2)c2c(=O)[nH]ccc21 [Example 1-69, (3R,4S)-3-(3-{[4-(azetidin-1-ylsulfonyl)phenyl]amino}-4-oxo-4,5-dihydro-1H-pyrazolo[4,3-c]pyridin-1-yl)tetrahydro-2H-pyran-4-carbonitrile]
0.08	0.15		N#C[C@H]1CCOCC1n1nc(Nc2ccc(C(O)(c3ccncc3)C(F)(F)F)cc2)c2c(=O)[nH]ccc21 (single isomer, unassigned) [Example 1-94, (3R,4S)-3-(4-oxo-3-((4-((S or R)-2,2,2-trifluoro-1-hydroxy-1-(pyridin-4-yl)ethyl)phenyl)amino)-4,5-dihydro-1H-pyrazolo[4,3-c]pyridin-1-yl)tetrahydro-2H-pyran-4-carbonitrile]
0.04		0.3	CC(C)(C)OC(=O)CN1Cc2cc(Nc3nn([C@H]4COCC[C@@H]4C#N)c4cc[nH]c(=O)c34)ccc2S1(=O)=O [Example 1-64, tert-butyl [5-({1-[(3R,4S)-4-cyanotetrahydro-2H-pyran-3-yl]-4-oxo-4,5-dihydro-1H-pyrazolo[4,3-c]pyridin-3-yl}amino)-1,1-dioxido-1,2-benzisothiazol-2(3H)-yl]acetate]
0.12	0.18		CC(c1ccc(Nc2nn([C@H]3COCC[C@@H]3C#N)c3cc[nH]c(=O)c23)cc1)n1nccn1 (single isomer, unassigned) [Example 1-44, (3R,4S)-3-[4-oxo-3-({4-[(1S or 1R)-1-(2H-1,2,3-triazol-2-yl)ethyl]phenyl}amino)-4,5-dihydro-1H-pyrazolo[4,3-c]pyridin-1-yl]tetrahydro-2H-pyran-4-carbonitrile]
0.04		0.08	CCN(C(C)(C)C)S(=O)(=O)c1ccc(Nc2nn([C@H]3COCC[C@@H]3C#N)c3cc[nH]c(=O)c23)cc1 [Example 1-79, N-(tert-butyl)-4-((1-((3R,4S)-4-cyanotetrahydro-2H-pyran-3-yl)-4-oxo-4,5-dihydro-1H-pyrazolo[4,3-c]pyridin-3-yl)amino)-N-ethylbenzenesulfonamide]
0.14	0.15		N#C[C@H]1CCOC[C@@H]1n1nc(Nc2ccc(C(N3CCSCC3)C(F)(F)F)cc2)c2c(=O)[nH]ccc21 (single isomer, unassigned) [Example 2-5, (3R,4S)-3-[4-oxo-3-({4-[(1S or 1R)-2,2,2-trifluoro-1-thiomorpholin-4-ylethyl]phenyl}amino)-4,5-dihydro-1H-pyrazolo[4,3-c]pyridin-1-yl]tetrahydro-2H-pyran-4-carbonitrile]
